Measured values reported in patent US11878972B2, “Treatment of neurological disorders” (TORQUR AG, priority 2016, dated 2024).
Like-named read-outs stand apart in the source and are kept apart here.

Tests used:
[1] = Maximal tolerated dose (MTD) / tolerability in BALB/c nude mice; type: in vivo; conditions: for MTD: female, BALB/c nude, mouse, in vivo, po
Protocol: In order to find a dose that could be used for further experiments and in order to show tolerability of compounds of the present invention, female BALB/c nude mice were treated with Cpd. 3 and Cpd. 8 by per oral (p.o.) gavage twice for five days with a two day dose holiday in between. Compounds were administered in the following vehicle: 20% Hydroxypropyl-β-cyclodextrin (HPBCD), 10% DMSO and 70% water. The major endpoint was to evaluate the body weight loss and animal survival. The body weights were recorded daily for the dosing days and at least twice weekly thereafter. The animal death was checked daily for survival. Animals were to be evaluated for 7 days post the final dose. The tolerated dose was defined as the dose that results in less than 20% mean body-weight loss, and no treatment related death during the study. The randomized block design was used to assign experimental animals to groups. First, the experimental animals were divided into homogeneous blocks according to their initial body weight. Secondly, within each block, randomization of experimental animals to treatments was conducted.
Animal supplier: Shanghai Lingchang Bio-Technology Co. Ltd (LC, Shanghai, China). Animal Certificate No.: 2013001803305. The mice were kept in individual ventilated cage (IVC) systems at constant temperature and humidity with 5 animals in each cage.
Diet: Mouse diet, C060 irradiation sterilized dry granule food. Animals had free access during the entire study period. Water: RO water, autoclaved before using. Animals had free access to sterile drinking water.
OVCAR-3 and SUDHL/6 tumor bearing BALB/c nude mice were treated with Cpd. 3, p.o. at 100 mg/kg for 21 or 15 consecutive days, respectively under the same conditions. Body weight of the mice was stable.

[2] = tested on: S6 phosphorylation (S235/236); assay: mTOR signaling in brain samples of pilocarpine pre-treated and naïve mice (western blot); type: in vivo, mouse; conditions: for decrease of S6 phosphorylation (S235/236) versus control: brain, 3 hours after single oral dose: Cpd. 3 40 mg/kg, Cpd. 8 25 mg/kg, everolimus 5 mg/kg
Protocol: A ramping-up dosing protocol was used which has the advantage that pilocarpine can be individually applied according to the susceptibility of each mouse. Pilocarpine (Sigma-Aldrich, Germany) was administered to female NMRI mice intraperitoneally at a dose of 100 mg/kg (Pilo-SE group). […] To reduce peripheral side effects of pilocarpine, methylscopolamine (Sigma-Aldrich, Germany) was administered 30 minutes prior to the first injection of pilocarpine. Animals were continuously monitored and duration of convulsive SE was registered [referred to Racine's scale. SE onset was defined as continuous ongoing seizure activity following occurrence of one or two generalized tonic-clonic seizures [stage 4 or 5 on the Racine scale]. SE was characterized by head nodding in an upright (sitting) body position, Straub tail, and slight to moderate convulsions of forelimbs, sometimes interrupted by further generalized tonic-clonic seizures. In order to reduce mortality, SE was terminated by diazepam (10 mg/kg i.p.; diazepam-ratiopharm 10, injection solution) 90 min after SE onset. […] In the sham-SE group mice were treated with the same treatment scheme as the pilo-SE group but pilocarpine was replaced by 0.9% sodium chloride solution. The mortality in the pilo-SE model in mice is relatively high (overall about 50%) and can vary markedly between experimental groups/days. Therefore we had to start with a large number of mice for SE induction in order to reliably obtain a group size of 20-22 animals for the MEST.
Brain samples from pilocarpine treated mice and untreated mice were snap frozen and tissue was lysed in buffer containing 25 mM Tris-HCl, pH 8, 50 mM NaCl, 0.5% (w/v) sodium deoxycholate (DOC), and 0.5% (w/v) Triton X-100 and supplemented with complete protease inhibitor (Roche, Mannheim, Germany) and Phosphostop (NEB, USA). Disruption of cell lysates was performed by drawing up the cell suspension twenty times into a syringe with a small gauge needle (21 G) on ice. Protein concentrations in the lysates were determined by using the Pierce BCA Protein Assay kit (Thermo Scientific, Bonn, Germany) according to the manufacturer's instructions. […] Membranes were incubated with primary antibodies anti S6 1:1000, anti S6 Phospho Serin (240/244) 1:1000, anti S6 Phospho Serin (235/236) 1:2000 (NEB) and anti-Actin 1:100 (Sigma-Aldrich) for 1 h in 2% milk in PBST at room temperature (RT) and washed three times for 10 min in PBS-T. Secondary antibodies anti-rabbit-HRP 1:1000 (Dako, Hamburg, Germany) were incubated for 1 h in 2% milk in PBST at RT and washed three times for 10 min in PBST. Proteins were detected by enhanced chemiluminescence using SuperSignal West Femto Chemiluminescent Substrate (Thermo Scientific) and the ChemiDoc system (Bio-Rad, Munich, Germany) with QuantityOne software (Bio-Rad) according to the manufacturer's protocol. Relative protein expressions were quantified densitometrically with QuantityOne (Bio-Rad) software and calculated by normalization to the reference signals of actin with GraphPad Prism software (GraphPad, San Diego, CA, USA).
Pilocarpine pre-treated and naïve mice were treated with a single oral dose of Cpd. 3 (40 mg/kg), Cpd. 8 (25 mg/kg), everolimus (5 mg/kg) or vehicle. 5 mice per group were utilized and sacrificed after 3 hours.

[3] = tested on: 51Q-HTT-Exon1-eGFP transfected HEK cells; assay: Immune cytochemistry, count of mutHTT aggregates; type: cell-based, human; conditions: Cpd. 8 130 nM, Cpd. 3 400 nM
Protocol: HEK cells were transiently transfected with pcDNA3.1/V5-His vector from Clontech (Mountain View, USA) containing the expression sequence for Exon1 of HTT with a 19Q (no aggregation) or 51Q extension and enhanced green fluorescence protein (eGFP) tag using Attractene Transfection Reagent (Qiagen, Netherlands). 1×10^6 cells were seeded in a 6 well plate. On the next day 2 μg DNA were mixed with 95.5 μl transfection media and 4.5 μl transfection reagent. After an incubation time of 15 min the mixture was added to the cells. After 72 hours cells were harvested or fixed for analysis.
HEK cells were seeded in poly-L-lysine (Sigma-Aldrich, USA) coated coverslips in 24 well plates at 10^4 cells per well and transiently transfected with 19Q- or 51Q-HTT-Exon1-eGFP. Cells were treated with Compounds as described under A for 8 or 24 hours. This incubation ended 72 hours after transfection. Cells were fixed with 4% (para-formaldehyde) PFA. Coverslips were fixed glass slides using mounting media that contained 4′,6-Diamidin-2-phenylindol (DAPI) (FIG. 7C). Nuclei and aggregates containing HTT-Exon1-eGFP were counted manually. 10 000 cells were counted per sample (FIG. 7D).

[4] = tested on: STHdh^Q7/Q7 and STHdh^Q111/Q111 cells; assay: LDH assay (cytotoxicity); conditions: for LDH activity compared to control: at higher concentrations; for LDH production: time points between 24 h and 48 h
Protocol: Cytotoxicity of test compounds was measured using the lactate dehydrogenase (LDH) assay from Roche, Switzerland according to the manufacturer's instructions.
STHdh^Q111/Q111 and STHdh^Q7/Q7 (Coriell Institute for Medical Research, USA) were cultured in DMEM (Invitrogen, USA) supplemented with FBS (Invitrogen, USA) 10%, Geniticine (G418, Biochrom, Germany)) 1% und antibiotic antimycotic (Invitrogen, USA) 1% in a humidified incubator at 37° C. and 5% CO2. […] 10^4 STHdh^Q7/Q7 and STHdh^Q111/Q111 cells per well were seeded in a 96 well plate incubated with Cpd.

[5] = epileptic (pilocarpine pre-treated) mice

| Compound | Body weight of the mice ([1]; OVCAR-3 and SUDHL/6 tumor bearing BALB/c nude mice, p.o. 100 mg/kg for 21 or 15 consecutive days) | MTD ([1]; BALB/c mice, p.o., twice for five days with a two day dose holiday, read-out: MTD) | decrease of S6 phosphorylation (S235/236) versus control [2, 5] | S6 phosphorylation / mTOR signaling in brain (FIG. 3B) ([2]; epileptic/pilocarpine pre-treated and naïve mice, single oral dose) | decrease of S6 phosphorylation (S235/236) versus control ([2]; naïve mice) | reduction of number of mutHTT aggregates ([3]; 8 hours of treatment) | reduction of number of mutHTT aggregates ([3]; 24 hours of treatment) | LDH activity compared to control [4] | LDH production [4] | MTD [1] |
| --- | --- | --- | --- | --- | --- | --- | --- | --- | --- | --- |
| Nc1cc(C(F)F)c(-c2nc(N3C4CCC3COC4)nc(N3C4CCC3COC4)n2)cn1 [Compound 3, 5-(4-(3-oxa-8-azabicyclo[3.2.1]octan-8-yl)-6-(3-oxa-8-azabicyclo[3.2.1]octan-8-yl)-1,3,5-triazin-2-yl)-4-(difluoromethyl)pyridin-2-amine] | stable | 100 mg/kg | 4.3 fold | significantly inhibited S6 phosphorylation in brain | 4.6 fold | 66% | 73% | decreased compared to control | reduced LDH production |  |
| C[C@H]1COCCN1c1nc(-c2cnc(N)cc2C(F)F)nc(N2CCOCC2)n1 [Compound 8, (S)-4-(difluoromethyl)-5-(4-(3-methylmorpholino)-6-morpholino-1,3,5-triazin-2-yl)pyridin-2-amine] |  |  | 2.8 fold |  | 10.9 fold | 55% | 77% | decreased compared to control | reduced LDH production | 25 mg/kg |
